Data taken from the NIST ThermoML archive (doi:10.1021/je800579j).
Numbers after ± are expanded uncertainties.

Key:
[1] = xn = mol fraction of the nth substance listed; settings: Liquid, Pycnometric method
[2] = refractive index (Na D-line) (dimensionless); xn = mol fraction of the nth substance listed; settings: Liquid, Standard Abbe refractometry
[3] = refractive index (Na D-line) (dimensionless); settings: Liquid, Standard Abbe refractometry
[4] = Liquid, Pycnometric method

c1ccccc1 [benzene] + C1COCCO1
x2 = 0
Settings | mass density, [1] [kg/m3] | refractive index, [2]
288.15 K | 884.3 ± 0.81 | 1.5042 ± 0.0007
293.15 K | 878.95 ± 0.8 | 1.5011 ± 0.0007
298.15 K | 873.61 ± 0.8 | 1.498 ± 0.0007
303.15 K | 868.26 ± 0.81 | 1.4949 ± 0.0007
308.15 K | 862.9 ± 0.81 | 1.4918 ± 0.0007
313.15 K | 857.56 ± 0.82 | 1.4887 ± 0.0007
318.15 K | 852.23 ± 0.82 | 1.4856 ± 0.0007

Cc1ccccc1 [toluene]
Settings | mass density, [4] [kg/m3] | refractive index, [3]
288.15 K | 871.79 ± 0.72 | 1.4998 ± 0.0007
293.15 K | 867.08 ± 0.71 | 1.497 ± 0.0007
298.15 K | 862.36 ± 0.72 | 1.4942 ± 0.0007
303.15 K | 857.64 ± 0.72 | 1.4913 ± 0.0007
308.15 K | 852.93 ± 0.73 | 1.4884 ± 0.0007
313.15 K | 848.21 ± 0.73 | 1.4855 ± 0.0007
318.15 K | 843.49 ± 0.74 | 1.4826 ± 0.0007

Cc1ccc(C)cc1 [1,4-dimethylbenzene]
Settings | mass density, [4] [kg/m3] | refractive index, [3]
288.15 K | 865.52 ± 0.67 | 1.4985 ± 0.0007
293.15 K | 861.17 ± 0.67 | 1.4959 ± 0.0007
298.15 K | 856.82 ± 0.67 | 1.4933 ± 0.0007
303.15 K | 852.47 ± 0.68 | 1.4907 ± 0.0007
308.15 K | 848.12 ± 0.68 | 1.4881 ± 0.0007
313.15 K | 843.77 ± 0.69 | 1.4855 ± 0.0007
318.15 K | 839.42 ± 0.7 | 1.483 ± 0.0006

c1ccccc1 [benzene]
Settings | mass density, [4] [kg/m3] | refractive index, [3]
288.15 K | 884.3 ± 0.81 | 1.5042 ± 0.0007
293.15 K | 878.95 ± 0.8 | 1.5011 ± 0.0007
298.15 K | 873.61 ± 0.8 | 1.498 ± 0.0007
303.15 K | 868.26 ± 0.81 | 1.4949 ± 0.0007
308.15 K | 862.9 ± 0.81 | 1.4918 ± 0.0007
313.15 K | 857.56 ± 0.82 | 1.4887 ± 0.0007
318.15 K | 852.23 ± 0.82 | 1.4856 ± 0.0007

Cc1cc(C)cc(C)c1 [1,3,5-trimethylbenzene]
Settings | mass density, [4] [kg/m3] | refractive index, [3]
288.15 K | 869.28 ± 0.63 | 1.502 ± 0.0007
293.15 K | 865.37 ± 0.63 | 1.4995 ± 0.0007
298.15 K | 861.45 ± 0.63 | 1.4969 ± 0.0007
303.15 K | 857.54 ± 0.64 | 1.4944 ± 0.0007
308.15 K | 853.63 ± 0.65 | 1.4918 ± 0.0007
313.15 K | 849.71 ± 0.65 | 1.4893 ± 0.0007
318.15 K | 845.8 ± 0.66 | 1.4868 ± 0.0007

C1COCCO1 [1,4-dioxane] + Cc1cc(C)cc(C)c1
x1 = 1
Settings | mass density, [1] [kg/m3] | refractive index, [2]
288.15 K | 1039.23 ± 0.87 | 1.4245 ± 0.0006
293.15 K | 1033.59 ± 0.87 | 1.4224 ± 0.0006
298.15 K | 1027.95 ± 0.87 | 1.4203 ± 0.0006
303.15 K | 1022.32 ± 0.88 | 1.4182 ± 0.0006
308.15 K | 1016.68 ± 0.88 | 1.4161 ± 0.0006
313.15 K | 1011.05 ± 0.89 | 1.4139 ± 0.0006
318.15 K | 1005.42 ± 0.89 | 1.4117 ± 0.0006
